The source of these data is patent publication US9707228B2, “Dry powder formulation” (Agency for Science, Technology and Research, priority 2012, dated 2017).

The subject of the test is Pseudomonas aeruginosa. Description: MIC determination via the microdilution method. The test is classed as cell-based. As to conditions: read-out: minimum inhibitory concentration (MIC). The source says: Ciprofloxacin hydrochloride and gatifloxacin hydrochloride were supplied by Junda Pharmaceutical Co. Ltd (of Guangzhou of China). The aqueous solution of ciprofloxacin hydrochloride and gatifloxacin hydrochloride (at a weight ratio of 1:2.5) was obtained by dissolving both drugs together in water. The weight ratio of the individual quinolone in the solution (as well as in the resultant spray-dried particle) was based on the quinolone's minimum inhibitory concentration (MIC). The MIC was experimentally determined and a ratio of the quinolones was obtained as a guideline in developing the final workable proportion. The quinolones' MIC values were important as they provided preliminary guidance on the required therapeutic dose of each quinolone in the binary (SD-CIP/GAT) powder formulation (i.e. combination ratios). The MICs of the various quinolones for the bacteria Pseudomonas aeruginosa different bacteria were determined via the microdilution method and used to determine the desired binary drug proportions. For the bacteria Pseudomonas aeruginosa, since MICCIP:MICGAT is 1:2 (actual values are 0.25 μg/ml:0.5 μg/ml), the binary formulation was composed of CIP:GAT in the ratio of 1:2. […]

Each structure is given as a SMILES string. Counter-ions that a name gives are not always drawn.

On to `O=C(O)c1cn(C2CC2)c2cc(N3CCNCC3)c(F)cc2c1=O` [CIP, ciprofloxacin hydrochloride], for which the MIC is 0.25 µg/mL.

On to `COc1c(N2CCNC(C)C2)c(F)cc2c(=O)c(C(=O)O)cn(C3CC3)c12` (centres unmarked) [GAT, gatifloxacin hydrochloride], for which the MIC amounted to 0.5 µg/mL.
